According to paper PMC4926359, “Cloning, Expression and 3D Structure Prediction of Chitinase from Chitinolyticbacter meiyuanensis SYBC-H1” (International Journal of Molecular Sciences, 2016):

System: CHI2 chitinase
Experiment: p-nitrophenol release at […] nm, Lineweaver-Burk
Format: biochemical, Chitinolyticbacter meiyuanensis
Conditions: 50 mM sodium phosphate pH 7.0, 37 °C; substrate range 50-250 μM; unit contradictory in the paper: mM in b32 and b39, µmol/L in abstract b1

Km: 23 mM
SMILES: CC(=O)N[C@H]1[C@H](Oc2ccc([N+](=O)[O-])cc2)O[C@H](CO)[C@@H](O)[C@@H]1O [p-NP-GlcNAc]
